# Measured values reported in patent publication US10759777B2, “Carbazole-containing amides, carbamates, and ureas as cryptochrome modulators” (Synchronicity Pharma, Inc., priority 2014, dated 2020).
# What was measured:
# [1] = test system: core clock genes Per2, Bmal1, Cry2 in liver; assay: Four day study, liver core clock gene mRNA in ICR mice; format: in vivo, mouse; conditions: 50 mg/kg PO BID 4 days
# Experimental: Male ICR mice (weighing 30-35 g), obtained from Charles River Laboratories (Hollister, Calif.), were used for the experiment following at least 3 days of acclimation. Mice were dosed with vehicle (WFI or 10% Kolliphor) or compound (50 mg/kg, dose volume 5 mL/kg, PO) for 4 days BID (twice a day), beginning in the afternoon of the first day. The last dose of compound or vehicle was administered on the morning of harvest. On the day of harvest (6 hours following the final dose), mice were euthanized by CO2 asphyxiation and 50 mg of liver tissue was excised and placed in a tube containing 500 μl of RNA later.
# E.Z.N.A.® HP Total RNA Isolation Kits (R6812-01 and the protocol described in the Manual, Revised 2010) were utilized to prepare and isolate RNA from the liver samples. To prepare the RNA samples, 10-30 mg of sample was removed from RNA-Later and placed in a 1.5 ml microfuge tube. GTC lysis buffer (700 μl) was added to the tissue, which was homogenized with a rotor-stator homogenizer (e.g. Tissue-Tearor, Model #985370 BioSpec Products with 4.5 mm probe, Cat. #985370-04), and then centrifuged at full speed (≥13,000×g) for 5 minutes. The cleared supernatant was transferred by pipetting to a DNA Clearance Column Pre-inserted in a 2 mL Collection Tube. The assembled column was centrifuged at 13,000×g for 1 minute, and the flow-through was saved. An equal volume (700 μl) of 70% ethanol was added to the lysate and mixed. The sample was then applied to a HiBind RNA spin column placed into a 2 ml collection tube, which was centrifuged at 10,000×g for 60 seconds at room temperature. RNA Wash Buffer I (250 μl) was added by pipetting directly onto a new HiBind RNA column inserted in a 2 ml collection tube. The assembled column was centrifuged at 10,000×g for 60 seconds. The RNA column was placed into a new 2 ml collection tube. DNase I stock solution is pipetted (75 μl) directly onto the surface of the HiBind RNA resin in each column (Using DNAse Digestion with RNase Free DNase Set (E1091): for each HiBind RNA column, the DNase I stock solution was prepared as followed: E.Z.N.A.® DNase I Digestion Buffer 73.5 μl, RNase Free DNase I (20 Kunitz/μl) 1.5 μl=Total Volume 75 μl). The column with bound RNA was incubated at room temperature (25-30° C.) for 15 minutes. RNA Wash Buffer I (500 μl) was added to the column and placed on a bench top for 2 minutes. After centrifuging at 10,000×g for 60 seconds, discarding the flow-through, 500 μl of RNA Wash Buffer II was added and centrifuged at 10,000×g for 60 seconds. Another 500 μl of RNA Wash Buffer II was added and the column assembly was centrifuged at 10,000×g for 60 seconds. The column was centrifuged for 2 minutes at maximum speed to completely dry the HiBind matrix. The column was placed in a clean 1.5 ml microcentrifuge tube and 40-70 μl of molecular biology grade water is added. After sitting for 1 minute, the column was centrifuged for 2 minutes at maximum speed to elute the RNA. The isolated RNA was collected into the collection tube.
# RediPlate 96 RiboGreen RNA Quantification Kit (Invitrogen) RediPlate standard curve was prepared by transferring 20 l reconstituted RNA standard to a RediPlate well reconstituted in 180 l RediPlate TE buffer. For liver RNAs prepared from 30-100 mg of tissue using a kit similar to the Omega Bio-Tek HP Total RNA Kit and eluted in RNAse-free water in a volume of 50 l (microliters), 5 l of the total RNA is diluted in 195 l of RediPlate TE buffer (1:40 dilution of RNA), mix. After transferring 5 l to RediPlate well reconstituted in 195 l TE buffer and incubating 10 min. at RT, Fluorescence Intensity of wells with standards and samples were read in a Tecan M200 with Excitation set at 480 nm and Emission set at 520 nm with the gain set to ˜70%. Alternatively, one can use the FlexStation 3 with Ex 488 nm and Em 525 nm and a Cutoff of 515 nm.
# [2] = test system: core clock gene mRNAs in liver; assay: Single dose at peak or nadir of Cry1 expression, liver core clock gene mRNAs; format: in vivo, mouse; conditions: single dose at ZT0 (peak) or ZT10 (nadir); liver 7.5 hours later
# Experimental: For compounds that interact directly with the core clock mechanism, the time of dosing may be critical for maximizing their effects. […] The former (ZTO) is coincident with the peak of Cry1 and Bmal1 protein in mouse liver and the latter (ZT10) corresponds to the approximate nadir of Cry1 and Bmal1. Liver tissue was taken 7.5 hours later for each, and the samples were examined for core clock gene mRNAs by RT-qPCR.
# C57/Bl6J DIO mice = assay: Compound 72 in diet-induced obesity (DIO) mouse model; format: in vivo; conditions: 100 mg/kg PO QD 7 days
# Description: Male C57/Bl6J DIO mice were obtained from The Jackson Laboratory (Sacramento, Calif.). […] Animals were accustomed to these conditions for at least 2 weeks before experimentation and used at approximately 24 weeks of age.
# Significance was accepted when p<0.05.
# [3] = Pharmacokinetic analysis in SD rats; format: in vivo; conditions: plasma; rat; 50 mg/kg P.O.
# Experimental: Male SD rats (weighing 250-300 g, Charles River Laboratories) were used for the experiment with n=4 rats for each experimental group. […] Blood was collected at the following time points after administration: 15, 30, 60, 90 minutes, 3, 6, 12 and 24 hours. A pre-dose sample was also collected. Animals were cannulated by technical staff at Charles River, prior to delivery at Reset. Whole blood (0.3 ml) was collected from a cannula in the right common jugular vein at each time-point. The whole blood was transferred to an EDTA tube, and then centrifuged at 5400 rpm for 5 minutes at 4° C. The resultant plasma was frozen using dry ice and then stored at −80° C. until ready for assay. 0.9% Sodium Chloride (0.3 ml) was administered for fluid replenishment after each blood draw. 0.1 ml of Sodium Heparin (500 IU/ml) was used as a lock solution after the 12 hr time-point. Samples were assayed as described above.
smiles,measurement,setting,value
"O=C1NCCN1CC(O)Cn1c2ccc(F)cc2c2cc(F)ccc21 (stereo not shown) [Compound 72, 1-(3-(3,6-difluoro-9H-carbazol-9-yl)-2-hydroxypropyl)imidazolidin-2-one]",liver Per2 expression,[1]; ZT6,suppression
same,Cry2 transcripts,[1]; liver,decrease
same,increase in Bmal1 mRNA at ZT6,[1]; liver,4 fold
same,"impact on core clock mRNAs, dosing at peak vs nadir of Cry1",[2],greater relative impact on the clock mRNAs at the peak compared to the nadir
same,OGTT glucose course,C57/Bl6J DIO mice,much lower than the vehicle control group
same,glucose AUC from OGTT,C57/Bl6J DIO mice,17055+/−769.1 units
same,% AUC extrapolated,[3],3.3%
